From article PMC9840614, “A gain-of-function TPC2 variant R210C increases affinity to PI(3,5)P2 and causes lysosome acidification and hypopigmentation” (Nature Communications, 2023)

Key:
Type in all cases: cell-based
[1] = target: T1, Two Pore Channel 2 (TPC2), R210C (Homo sapiens, UniProt Q8NHX9, L11A/L12A/R210C); assay: inside-out patch clamp, HEK293, concentration response
T1 construct: gene TPCN2; EGFP-tagged plasma membrane-targeted TPC2 L11A/L12A

[2] = target: T2, Two Pore Channel 2 (TPC2), R210A (Homo sapiens, UniProt Q8NHX9, R210A); assay: channel activation EC50 (n = […], data not shown in figures)
T2 construct: gene TPCN2
T2 sequence (Q8NHX9 whole entry R210A): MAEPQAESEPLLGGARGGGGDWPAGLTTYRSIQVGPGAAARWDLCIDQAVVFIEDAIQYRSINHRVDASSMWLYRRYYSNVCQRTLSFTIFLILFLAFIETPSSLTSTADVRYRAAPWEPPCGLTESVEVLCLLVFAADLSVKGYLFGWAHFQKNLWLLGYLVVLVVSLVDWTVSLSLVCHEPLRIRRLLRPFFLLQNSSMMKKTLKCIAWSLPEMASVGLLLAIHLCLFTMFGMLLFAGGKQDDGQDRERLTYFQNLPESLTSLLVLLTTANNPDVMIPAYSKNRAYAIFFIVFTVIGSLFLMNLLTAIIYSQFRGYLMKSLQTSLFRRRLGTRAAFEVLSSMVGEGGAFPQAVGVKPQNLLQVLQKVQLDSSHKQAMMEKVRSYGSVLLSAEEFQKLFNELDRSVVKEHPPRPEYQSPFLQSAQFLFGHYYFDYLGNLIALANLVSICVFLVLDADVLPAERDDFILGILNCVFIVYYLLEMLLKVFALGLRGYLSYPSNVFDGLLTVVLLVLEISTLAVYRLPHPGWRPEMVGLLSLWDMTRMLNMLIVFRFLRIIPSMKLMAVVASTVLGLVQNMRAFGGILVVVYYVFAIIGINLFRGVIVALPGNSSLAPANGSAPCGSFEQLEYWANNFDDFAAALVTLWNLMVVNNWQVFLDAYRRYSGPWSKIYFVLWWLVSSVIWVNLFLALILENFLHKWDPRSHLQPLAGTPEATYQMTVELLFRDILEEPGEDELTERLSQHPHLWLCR

[3] = target: T3, Two Pore Channel 2 (TPC2) (Homo sapiens, UniProt Q8NHX9, L11A/L12A); assay: inside-out patch clamp, HEK293, concentration response
T3 construct: gene TPCN2; EGFP-tagged plasma membrane-targeted TPC2 L11A/L12A
T3 sequence (Q8NHX9 whole entry L11A/L12A): as the sequence (Q8NHX9 whole entry R210A) above, with L11A, L12A, A210R counted along it

[4] = target: T4, Two Pore Channel 2 (TPC2), R210C (Homo sapiens, UniProt Q8NHX9, R210C); assay: whole-endolysosome patch clamp, HEK293 vacuoles, […]
T4 construct: gene TPCN2; EGFP-TPC2 R210C
T4 sequence (Q8NHX9 whole entry R210C): as the sequence (Q8NHX9 whole entry R210A) above, with A210C counted along it

T1 sequence (Q8NHX9 whole entry L11A/L12A/R210C): as the sequence (Q8NHX9 whole entry R210A) above, with L11A, L12A, A210C counted along it

| SMILES | EC50 [1] [nM] | EC50 [2] [nM] | EC50 [3] [nM] | whole-endolysosome patch clamp, HEK293 vacuoles, 100 nM [4] |
| --- | --- | --- | --- | --- |
| CCCCCCCC(=O)OC[C@H](COP(=O)(O)O[C@@H]1[C@H](O)[C@H](OP(=O)(O)O)[C@@H](O)[C@H](OP(=O)(O)O)[C@H]1O)OC(=O)CCCCCCC [PI(3,5)P2-diC8] | 2.27 ± 0.25 | 19.4 ± 0.74 | 209 ± 19.2 | – |
| COc1ccc([C@H]2N[C@H](C(=O)O)Cc3c2[nH]c2ccccc32)cc1CN1CCN(c2ccccc2F)CC1 [Ned-19] | – | – | – | Ned-19 inhibited the R210C currents at both potentials with fast kinetics |
